Test results published in patent US11866405B2, “Substituted indazoles as IRAK4 inhibitors” (AstraZeneca AB, priority 2020, dated 2024).
Like-named read-outs stand apart in the source and are kept apart here.

How the values were obtained:
[1] = target: IRAK4 auto-phosphorylation (Homo sapiens (Human), UniProt Q9NWZ3); test: IRAK4 phosphorylation cell assay in IL-1β-stimulated Karpas-299 cells; format: cell-based; conditions: IL-1β 22.7 ng/mL, pIRAK4 (Thr345/Ser346), geometric mean of at least 2 experiments
Summary of the method: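 Karpas-299 cells were preincubated 1 h at 37 °C with compound (10-point half-log series, top 30 μM), then stimulated 10 min with 22.7 ng/mL IL-1β. Cells were fixed and stained for pIRAK4 (Thr345/Ser346), and per-cell fluorescence was quantified by high-content imaging. IC50 values are geometric means of at least 2 experiments.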

[2] = test system: human PBMCs stimulated with LPS; test: LPS-induced cytokine release in human PBMCs; format: cell-based; conditions: PBMC, 0.11 ng/mL LPS, 4 h
Text: In Vitro Effect of IRAK4 Inhibitors on LPS- and IL-1β-Induced Cytokine Release in Human PBMCs
To evaluate the effect and potency of IRAK4 inhibitors on blocking disease-relevant pathways in human primary immune cells, we stimulated human PBMCs (peripheral blood mononuclear cells) with LPS (TLR4 agonist) or IL-1β (IL-1R ligand) and measured the release of the proinflammatory cytokines IL-6 and TNF-α. Briefly, PBMCs were isolated from human blood, donated from healthy individuals, using LymphoPrep density gradient and plated at a cell density of 200 000 cells/well (for LPS assay) or 300 000 cells/well (for IL-1β assay) in 96-well culture plates. Cells were incubated for 1 h with serial dilutions of IRAK4 inhibitor or vehicle (DMSO) prior to stimulation of cells with 0.11 ng/mL LPS (derived from E. coli) or 1 ng/mL recombinant human IL-1β. After 4 h of LPS stimulation or 20 h of […] stimulation, the supernatant was collected and the levels of the proinflammatory cytokines TNF-α, IL-8 and IL-6 were measured by Mesoscale Discovery (MSD) multiplex assay. Dose-response curves were plotted and IC50 values were calculated with 4-parameter curve fit using GraphPad Prism 8 (see Table 3).

[3] = test system: LPS-induced lung inflammation; test: Mouse model of LPS-induced airway inflammation; format: in vivo; conditions: mice, 5, 15 and 50 mg/kg oral, inhaled LPS 1 mg/mL, 4 h after challenge
Protocol: FIG. 1. In vivo dose response of Example 89 in an acute mouse model of LPS-induced lung inflammation. Example 89 compound was dosed orally to mice 1 h prior to inhaled LPS challenge (1 mg/mL). 4 h after the challenge, the animals were terminated and the levels of IL-6 and TNF-α released in the bronchoalveolar lavage fluid were measured. […] Individual data points represent individual animals, and bars represent the mean value of each group. Statistical differences between groups were calculated with a one-way ANOVA test comparing treatment groups to the vehicle group. **p<0.01, ***p<0.001. The ability of IRAK4 inhibitors according to the specification to reduce inflammatory cytokines and TNF-α in vivo is thus established.
In Vivo Effect of IRAK4 Inhibition in a Mouse Model of LPS-Induced Airway Inflammation
TLRs act as a first sensor of microbes and allergens in the airways and can mediate a rapid inflammatory response. A mouse model of inhaled LPS challenge was used to study the effect of IRAK4 inhibition on the processes of an acute TLR4-driven airway inflammation. […] The levels of proinflammatory cytokines were measured in the BALF supernatant using MSD multiplex assay 8 mice per treatment group were used, except for the LPS/vehicle group where 20 mice were used. […]

IRAK4 auto-phosphorylation, sequence (Q9NWZ3 whole entry): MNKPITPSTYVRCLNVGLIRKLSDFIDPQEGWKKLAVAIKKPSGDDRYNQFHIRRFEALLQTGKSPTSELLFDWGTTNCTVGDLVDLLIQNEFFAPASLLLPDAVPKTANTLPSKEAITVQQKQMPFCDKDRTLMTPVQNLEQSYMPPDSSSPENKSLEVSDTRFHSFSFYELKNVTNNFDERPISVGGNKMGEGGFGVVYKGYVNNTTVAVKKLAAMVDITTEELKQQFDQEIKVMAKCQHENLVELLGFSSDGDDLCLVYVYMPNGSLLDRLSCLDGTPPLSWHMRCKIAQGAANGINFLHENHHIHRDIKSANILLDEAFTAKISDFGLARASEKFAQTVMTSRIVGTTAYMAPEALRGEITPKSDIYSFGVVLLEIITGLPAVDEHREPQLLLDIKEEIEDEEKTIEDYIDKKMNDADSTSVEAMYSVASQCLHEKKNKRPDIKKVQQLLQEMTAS

- IC50 [1]: 0.036 µM
Structure (SMILES): COc1cc2nn([C@@H]3CC[C@@H](O)C[C@H]3C)cc2cc1C(=O)Nc1cnc2cccnn12 [Example 89, 2-((1R,2R,4R)-4-hydroxy-2-methylcyclohexyl)-N-(imidazo[1,2-b]pyridazin-3-yl)-6-methoxy-2H-indazole-5-carboxamide]
- IC50 ([2]; read-out: IC50, IL-6 read-out, LPS stimulation): 0.032 µM
- IC50 ([2]; read-out: IC50, TNF-α read-out, LPS stimulation): 0.039 µM
- levels of IL-6 in bronchoalveolar lavage fluid [3]: reduced the levels of IL-6 and TNF-α upon inhaled LPS challenge, in a dose-dependent manner
- levels of TNF-α in bronchoalveolar lavage fluid [3]: reduced the levels of IL-6 and TNF-α upon inhaled LPS challenge, in a dose-dependent manner
